Assay results published in publication PMC12664493, “Asparagine endopeptidase (AEP) inhibitor formulation via zein-based nanoparticle improves the therapeutic efficacy toward Alzheimer's disease” (Neurotherapeutics, 2025).
Read-outs that look alike come from different tables or passages of the source.

What was measured:
[1] = Plasma protein binding, mouse; type: in vitro ADME
[2] = Stability in human plasma; type: in vitro ADME; conditions: read-out: Stability-Plasma T1/2
BCRP = target: T1, BCRP (Homo sapiens, UniProt Q9UNQ0); test: Caco-2-BCRP assay with and without Ko143; type: in vitro ADME; conditions: for Papp A→B / Papp B→A / recovery: human
T1 construct: endogenous in cells; host or cells: Caco-2
T1 sequence (Q9UNQ0 1-655): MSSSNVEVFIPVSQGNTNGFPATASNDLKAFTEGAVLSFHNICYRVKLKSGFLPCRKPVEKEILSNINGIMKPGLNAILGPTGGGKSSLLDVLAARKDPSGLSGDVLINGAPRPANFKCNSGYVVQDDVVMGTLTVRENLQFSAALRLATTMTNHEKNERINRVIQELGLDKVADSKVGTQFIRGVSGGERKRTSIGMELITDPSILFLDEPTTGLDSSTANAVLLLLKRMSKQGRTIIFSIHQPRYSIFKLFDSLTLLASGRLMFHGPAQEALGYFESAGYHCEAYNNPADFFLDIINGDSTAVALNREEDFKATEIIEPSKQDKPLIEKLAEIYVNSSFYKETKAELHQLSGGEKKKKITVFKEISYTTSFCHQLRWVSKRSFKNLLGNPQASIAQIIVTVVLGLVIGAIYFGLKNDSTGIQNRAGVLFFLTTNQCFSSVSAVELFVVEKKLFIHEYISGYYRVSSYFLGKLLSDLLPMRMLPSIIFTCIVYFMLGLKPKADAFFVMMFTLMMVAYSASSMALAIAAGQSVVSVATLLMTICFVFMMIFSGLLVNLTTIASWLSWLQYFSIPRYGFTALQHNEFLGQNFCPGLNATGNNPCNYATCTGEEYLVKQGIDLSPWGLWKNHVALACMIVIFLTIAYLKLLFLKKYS

[3] = Stability in mouse plasma; type: in vitro ADME; conditions: read-out: Stability-Plasma T1/2
Caco-2 permeability = type: in vitro ADME; conditions: human
hERG K+ channel = hERG K+ channel (Homo sapiens, UniProt Q12809); test: hERG inhibition assay
[4] = Stability in mouse hepatocytes; type: in vitro ADME
[5] = PAMPA-BBB permeability assay; type: in vitro ADME; conditions: read-out: Permeability-PAMPA-BBB Pe
AEP [6] = target: T2, AEP (Rattus norvegicus, UniProt Q9R0J8); test: Titration assay of Aβ42-induced AEP activation in primary neurons (immunoblotting); type: cell-based; conditions: 2 μM pre-aggregated Aβ42, 24 h
T2 construct: endogenous in cells; host or cells: primary rat cortical neurons
T2 sequence (Q9R0J8 18-435): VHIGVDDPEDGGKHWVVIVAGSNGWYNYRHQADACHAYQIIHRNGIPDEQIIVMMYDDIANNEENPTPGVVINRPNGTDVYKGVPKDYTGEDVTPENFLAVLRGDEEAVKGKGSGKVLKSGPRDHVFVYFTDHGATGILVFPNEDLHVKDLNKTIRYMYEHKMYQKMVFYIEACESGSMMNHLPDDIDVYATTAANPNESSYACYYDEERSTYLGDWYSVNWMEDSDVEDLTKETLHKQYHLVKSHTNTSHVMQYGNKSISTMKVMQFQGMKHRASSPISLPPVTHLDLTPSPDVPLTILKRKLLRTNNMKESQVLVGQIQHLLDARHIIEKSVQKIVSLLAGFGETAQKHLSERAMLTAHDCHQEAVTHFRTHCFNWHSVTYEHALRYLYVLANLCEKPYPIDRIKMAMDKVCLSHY

AEP [7] = target: T2, AEP; test: AEP inhibition in cultured primary neurons; type: cell-based
AEP [8] = target: T3, AEP (Mus musculus, UniProt O89017); test: Chronic one-month oral treatment of 3xTg mice: AEP activation and substrate cleavage; type: in vivo; conditions: 7.5 mg/kg P.O. daily
T3 construct: from tissue; host or cells: brain / hippocampus of 3xTg mice
T3 sequence (O89017 18-435): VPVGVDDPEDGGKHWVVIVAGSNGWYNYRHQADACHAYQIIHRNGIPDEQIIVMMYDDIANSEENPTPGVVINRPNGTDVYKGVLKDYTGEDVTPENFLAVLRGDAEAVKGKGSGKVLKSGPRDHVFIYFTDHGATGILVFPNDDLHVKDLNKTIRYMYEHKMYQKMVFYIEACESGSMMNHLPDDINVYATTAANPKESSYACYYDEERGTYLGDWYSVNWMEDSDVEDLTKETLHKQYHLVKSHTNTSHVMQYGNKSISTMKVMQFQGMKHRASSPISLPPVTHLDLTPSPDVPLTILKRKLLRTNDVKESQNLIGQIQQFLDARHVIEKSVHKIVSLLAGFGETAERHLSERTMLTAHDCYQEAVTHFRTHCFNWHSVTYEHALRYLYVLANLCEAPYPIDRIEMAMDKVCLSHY

Aβ42 = test: Aβ ELISA of brain tissue of 3xTg mice; type: in vivo, mouse; conditions: 7.5 mg/kg P.O. daily, one month
[9] = Plasma protein binding, human; type: in vitro ADME
[10] = Stability in human liver microsomes; type: in vitro ADME
AEP [11] = target: T3, AEP; test: Acute PD in 3xTg mice: brain AEP enzymatic activity and immunoblotting; type: in vivo; conditions: 2 h
[12] = Stability in human hepatocytes; type: in vitro ADME
[13] = read-out: Stability-Hepatocytes T1/2

Sequence of hERG K+ channel (Q12809 whole entry): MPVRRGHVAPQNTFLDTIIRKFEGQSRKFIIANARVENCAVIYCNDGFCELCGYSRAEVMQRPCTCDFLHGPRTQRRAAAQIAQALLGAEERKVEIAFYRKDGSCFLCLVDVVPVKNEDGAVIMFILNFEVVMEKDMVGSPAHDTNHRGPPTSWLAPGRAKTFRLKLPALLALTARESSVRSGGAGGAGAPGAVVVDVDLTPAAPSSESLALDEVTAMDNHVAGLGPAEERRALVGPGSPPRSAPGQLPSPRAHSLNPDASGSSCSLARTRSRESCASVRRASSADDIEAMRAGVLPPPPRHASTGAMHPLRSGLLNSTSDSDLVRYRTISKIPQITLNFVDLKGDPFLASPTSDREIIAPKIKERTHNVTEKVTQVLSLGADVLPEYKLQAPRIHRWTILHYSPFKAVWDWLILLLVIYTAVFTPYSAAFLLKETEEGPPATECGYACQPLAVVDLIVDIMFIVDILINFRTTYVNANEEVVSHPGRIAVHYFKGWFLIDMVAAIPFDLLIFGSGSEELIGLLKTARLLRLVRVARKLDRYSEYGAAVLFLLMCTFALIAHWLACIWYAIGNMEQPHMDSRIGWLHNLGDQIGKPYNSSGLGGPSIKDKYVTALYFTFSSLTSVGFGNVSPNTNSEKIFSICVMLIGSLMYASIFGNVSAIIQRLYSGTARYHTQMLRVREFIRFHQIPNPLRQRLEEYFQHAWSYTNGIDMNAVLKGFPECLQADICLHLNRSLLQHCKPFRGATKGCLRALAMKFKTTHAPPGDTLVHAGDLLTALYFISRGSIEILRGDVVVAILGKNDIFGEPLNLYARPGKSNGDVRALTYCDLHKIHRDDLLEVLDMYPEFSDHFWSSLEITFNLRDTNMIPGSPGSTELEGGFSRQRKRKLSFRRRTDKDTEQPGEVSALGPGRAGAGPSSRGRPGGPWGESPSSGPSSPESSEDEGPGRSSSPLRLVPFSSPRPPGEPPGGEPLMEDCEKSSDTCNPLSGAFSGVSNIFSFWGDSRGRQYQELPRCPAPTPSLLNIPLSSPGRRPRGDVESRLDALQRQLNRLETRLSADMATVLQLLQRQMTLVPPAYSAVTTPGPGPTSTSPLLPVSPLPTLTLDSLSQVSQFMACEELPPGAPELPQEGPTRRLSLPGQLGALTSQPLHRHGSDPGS

- Plasma Protein F u, plasma(%) [1]: 20.4%
- fraction unbound ([1]; plasma, as a fraction, from Table S1, read-out: Unbound plasma fraction (fu, plasma)): 0.204
- half-life [2]: > 8 h
- BCRP substrate classification (BCRP): not a significant substrate of BCRP
- Papp A→B (BCRP; Caco-2, with Ko143 2 μM): 15.7 ×10⁻⁶ cm/s
- Papp B→A (BCRP; Caco-2, with Ko143 2 μM): 35.7 ×10⁻⁶ cm/s
- recovery (BCRP; Caco-2, with Ko143 2 μM, Ko143 2 μM, read-out: Recovery (%) A→B): 107%
- recovery (BCRP; Caco-2, with Ko143 2 μM, Ko143 2 μM, read-out: Recovery (%) B→A): 98.5%
- Papp A→B (BCRP; Caco-2, Ko143 0 μM): 12.1 ×10⁻⁶ cm/s
- Papp B→A (BCRP; Caco-2, Ko143 0 μM): 35.7 ×10⁻⁶ cm/s
- recovery (BCRP; Caco-2, Ko143 0 μM, read-out: Recovery (%) A→B): 91.8%
- recovery (BCRP; Caco-2, Ko143 0 μM, read-out: Recovery (%) B→A): 104%
- half-life [3]: > 8 h
- Papp A→B (Caco-2 permeability; a-b, first value of the cell): 6.34 ×10⁻⁶ cm/s
- Papp B→A (Caco-2 permeability; value after the slash, head names only a-b, read-out: Permeability-Caco-2 Papp, second value of the cell (taken as b-a)): 23.6 ×10⁻⁶ cm/s
- hepatocyte CLint [4]: 9 µL/min/1e6 cells
- half-life [4, 13]: 2.55 h
- Papp [5]: 8.4 ×10⁻⁶ cm/s
- IC50 (AEP [7]): 0.063 µM
- AEP activation, APP N585 and Tau N368 fragmentation, hippocampus immunoblotting (AEP [8]): gradually reduced
- Plasma Protein F u, plasma(%) [9]: 13.8%
- microsomal CLint [10]: 3.6 µL/min/mg
- half-life ([10]; read-out: Stability-Microsomes T1/2): > 4 h
- AEP enzymatic activity in the brain (AEP [11]; acute P.O. 7.5 and 15 mg/kg, dose-dependent): substantially inhibited
- Active AEP band intensity, hippocampus immunoblotting (AEP [11]; acute P.O.): further suppressed
- hepatocyte CLint [12]: 22 µL/min/1e6 cells
- half-life [12, 13]: 1.05 h
Compound: CC(C)Nc1nnc(Nc2cc(CO)c(N3CCOCC3)c3nonc23)s1 [11a-isopropyl]
- IC50 (hERG K+ channel): > 10 µM
- Aβ42-induced AEP activation (AEP [6]): suppressed AEP activation in a dose-dependent manner
- Aβ42 level in brain, ELISA (Aβ42): significantly reduced
